The text below walks through data of patent publication US20170000740A9, “COMBINATION THERAPEUTIC NANOPARTICLES” (UNIVERSITY OF GEORGIA RESEARCH FOUNDATION INC., priority 2013, published 2017).

The subject of the experiment is human prostate cancer PC-3 cells. The experiment can be described thus: Cytotoxic profile by MTT assay on human prostate cancer PC-3 cell line. Type of experiment: cell-based. Particulars: incubation time=48 h. In general terms: Formazan colour is commonly taken as a measure of viable cells.

What is called IC50 is the concentration that inhibits the measured activity by half. For the compound `CC(=O)Oc1ccccc1C(=O)O` [Aspirin], the IC50 (Homo sapiens) was over 100 µM.
`N.N.[Cl][Pt][Cl]` [Cisplatin]: inhibition was half-maximal at 14 µM (IC50).
